Measurements published in ChEMBL document CHEMBL4507311, “Data for DCP probe A-1155463” (2021).
The source made the active and inactive calls. The calls are words filed in the database; no cut-off is given here.

Tests used:
[1] = target: Serine/threonine-protein kinase haspin (Homo sapiens) (UniProt Q8TF76); conditions: Compound concentration 1000.0 nM
[2] = target: Serine/threonine-protein kinase pim-3 (Homo sapiens) (UniProt Q86V86); conditions: Compound concentration 1000.0 nM
[3] = GPCRScan assay: inhibition of GABA/PBR; parameters: species or system Rattus norvegicus; radioligand conc. used [nm] 0.3 – 2.0, parental cells brain tissue
[4] = test system: Leucine-rich repeat serine/threonine-protein kinase 2 (Homo sapiens), Q5S007 [G2019S]; conditions: Compound concentration 1000.0 nM
[5] = target: Activated CDC42 kinase 1 (Homo sapiens) (UniProt Q07912); conditions: Compound concentration 1000.0 nM
[6] = test system: Phosphatidylinositol 4,5-bisphosphate 3-kinase catalytic subunit alpha isoform (Homo sapiens), P42336 [M1043I]; conditions: Compound concentration 1000.0 nM
[7] = target: Cyclin-dependent kinase 19 (Homo sapiens) (UniProt Q9BWU1); conditions: Compound concentration 1000.0 nM
[8] = target: Serine/threonine-protein kinase 4 (Homo sapiens) (UniProt Q13043); conditions: Compound concentration 1000.0 nM
[9] = target: Cyclin-dependent kinase 11B (Homo sapiens) (UniProt P21127); conditions: Compound concentration 1000.0 nM
[10] = test system: Epidermal growth factor receptor (Homo sapiens), P00533 [L861Q]; conditions: Compound concentration 1000.0 nM
[11] = target: Ephrin type-A receptor 7 (Homo sapiens) (UniProt Q15375); conditions: Compound concentration 1000.0 nM
[12] = target: Mitogen-activated protein kinase 15 (Homo sapiens) (UniProt Q8TD08); conditions: Compound concentration 1000.0 nM
[13] = target: Dual specificity tyrosine-phosphorylation-regulated kinase 2 (Homo sapiens) (UniProt Q92630); conditions: Compound concentration 1000.0 nM
[14] = target: Serine/threonine-protein kinase PknB (Mycobacterium tuberculosis) (UniProt P9WI81); conditions: Compound concentration 1000.0 nM
[15] = target: Casein kinase I isoform gamma-2 (Homo sapiens) (UniProt P78368); conditions: Compound concentration 1000.0 nM
[16] = target: Vascular endothelial growth factor receptor 3 (Homo sapiens) (UniProt P35916); conditions: Compound concentration 1000.0 nM
[17] = target: Cyclin-G-associated kinase (Homo sapiens) (UniProt O14976); conditions: Compound concentration 1000.0 nM
[18] = target: Serine/threonine-protein kinase 10 (Homo sapiens) (UniProt O94804); conditions: Compound concentration 1000.0 nM
[19] = test system: Tyrosine-protein kinase ABL1 (Homo sapiens), P00519 [F317I]; conditions: Compound concentration 1000.0 nM
[20] = target: RAC-gamma serine/threonine-protein kinase (Homo sapiens) (UniProt Q9Y243); conditions: Compound concentration 1000.0 nM
[21] = test system: Mast/stem cell growth factor receptor Kit (Homo sapiens), P10721 [V559D]; conditions: Compound concentration 1000.0 nM
[22] = test system: Mast/stem cell growth factor receptor Kit (Homo sapiens), P10721 [V559D,V654A]; conditions: Compound concentration 1000.0 nM
[23] = test system: Epidermal growth factor receptor (Homo sapiens), P00533 [UNDEFINED MUTATION]; conditions: Compound concentration 1000.0 nM
[24] = test system: Proto-oncogene tyrosine-protein kinase receptor Ret (Homo sapiens), P07949 [M918T]; conditions: Compound concentration 1000.0 nM
[25] = target: Mitogen-activated protein kinase kinase kinase 19 (Homo sapiens) (UniProt Q56UN5); conditions: Compound concentration 1000.0 nM
[26] = target: Tyrosine-protein kinase Yes (Homo sapiens) (UniProt P07947); conditions: Compound concentration 1000.0 nM
[27] = target: Serine/threonine-protein kinase ULK1 (Homo sapiens) (UniProt O75385); conditions: Compound concentration 1000.0 nM
[28] = target: Tyrosine-protein kinase JAK3 (Homo sapiens) (UniProt P52333); conditions: Compound concentration 1000.0 nM
[29] = target: Phosphatidylinositol 4,5-bisphosphate 3-kinase catalytic subunit gamma isoform (Homo sapiens) (UniProt P48736); conditions: Compound concentration 1000.0 nM
[30] = target: Serine/threonine-protein kinase BRSK1 (Homo sapiens) (UniProt Q8TDC3); conditions: Compound concentration 1000.0 nM
[31] = target: cGMP-dependent protein kinase 2 (Homo sapiens) (UniProt Q13237); conditions: Compound concentration 1000.0 nM
[32] = target: Tyrosine-protein kinase Tec (Homo sapiens) (UniProt P42680); conditions: Compound concentration 1000.0 nM
[33] = target: Serine/threonine-protein kinase RIO1 (Homo sapiens) (UniProt Q9BRS2); conditions: Compound concentration 1000.0 nM
NCI-H146 = assay: CellTiter-Glo Luminescent Cell Viability Assay (BCL-XL dependent cell line H146); type: functional, cell-based; conditions: Homo sapiens
[34] = target: Angiopoietin-1 receptor (Homo sapiens) (UniProt Q02763); conditions: Compound concentration 1000.0 nM
[35] = target: Serine/threonine-protein kinase Sgk1 (Homo sapiens) (UniProt O00141); conditions: Compound concentration 1000.0 nM
[36] = target: Receptor-interacting serine/threonine-protein kinase 4 (Homo sapiens) (UniProt P57078); conditions: Compound concentration 1000.0 nM
[37] = target: Serine/threonine-protein kinase MRCK alpha (Homo sapiens) (UniProt Q5VT25); conditions: Compound concentration 1000.0 nM
[38] = target: Serine/threonine-protein kinase TAO3 (Homo sapiens) (UniProt Q9H2K8); conditions: Compound concentration 1000.0 nM
[39] = target: D(3) dopamine receptor (Homo sapiens) (UniProt P35462); conditions: Compound concentration 10.0 uM
[40] = target: Serine/threonine-protein kinase SIK3 (Homo sapiens) (UniProt Q9Y2K2); conditions: Compound concentration 1000.0 nM
[41] = test system: Hepatocyte growth factor receptor (Homo sapiens), P08581 [Y1235D]; conditions: Compound concentration 1000.0 nM
[42] = target: Cyclin-dependent kinase 3 (Homo sapiens) (UniProt Q00526); conditions: Compound concentration 1000.0 nM
[43] = target: Tyrosine-protein kinase Fyn (Homo sapiens) (UniProt P06241); conditions: Compound concentration 1000.0 nM
[44] = target: cAMP-dependent protein kinase catalytic subunit beta (Homo sapiens) (UniProt P22694); conditions: Compound concentration 1000.0 nM

Sequence of Activated CDC42 kinase 1 (Homo sapiens) (Q07912 whole entry, looked up, canonical isoform): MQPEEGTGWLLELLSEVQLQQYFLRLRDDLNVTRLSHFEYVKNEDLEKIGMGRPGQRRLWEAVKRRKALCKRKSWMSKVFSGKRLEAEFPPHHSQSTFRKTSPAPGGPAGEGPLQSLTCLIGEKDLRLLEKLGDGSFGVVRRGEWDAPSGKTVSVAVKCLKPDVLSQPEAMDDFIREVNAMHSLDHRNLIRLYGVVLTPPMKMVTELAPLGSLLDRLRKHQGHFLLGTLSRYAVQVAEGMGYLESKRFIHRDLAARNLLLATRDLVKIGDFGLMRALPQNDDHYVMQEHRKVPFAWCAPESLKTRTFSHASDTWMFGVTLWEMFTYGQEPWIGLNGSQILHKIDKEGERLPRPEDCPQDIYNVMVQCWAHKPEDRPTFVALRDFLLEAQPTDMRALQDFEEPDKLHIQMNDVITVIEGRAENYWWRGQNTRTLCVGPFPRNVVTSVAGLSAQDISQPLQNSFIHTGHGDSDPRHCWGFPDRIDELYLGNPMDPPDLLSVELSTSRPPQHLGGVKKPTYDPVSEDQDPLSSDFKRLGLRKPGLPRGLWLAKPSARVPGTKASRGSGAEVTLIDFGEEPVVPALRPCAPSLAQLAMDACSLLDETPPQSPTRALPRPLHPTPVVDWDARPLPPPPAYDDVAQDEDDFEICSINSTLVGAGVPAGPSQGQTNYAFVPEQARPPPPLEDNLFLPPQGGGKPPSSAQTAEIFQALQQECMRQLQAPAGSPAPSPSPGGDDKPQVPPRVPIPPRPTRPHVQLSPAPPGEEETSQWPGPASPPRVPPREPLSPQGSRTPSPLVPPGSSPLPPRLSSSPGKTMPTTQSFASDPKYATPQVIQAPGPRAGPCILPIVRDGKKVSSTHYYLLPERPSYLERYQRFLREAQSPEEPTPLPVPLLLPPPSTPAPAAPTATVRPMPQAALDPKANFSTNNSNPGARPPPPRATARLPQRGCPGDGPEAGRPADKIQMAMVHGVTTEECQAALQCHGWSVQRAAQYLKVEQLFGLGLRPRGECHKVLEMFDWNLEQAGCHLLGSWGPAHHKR
Sequence of Mast/stem cell growth factor receptor Kit (Homo sapiens), P10721 [V559D,V654A] (P10721 whole entry V559D/V654A): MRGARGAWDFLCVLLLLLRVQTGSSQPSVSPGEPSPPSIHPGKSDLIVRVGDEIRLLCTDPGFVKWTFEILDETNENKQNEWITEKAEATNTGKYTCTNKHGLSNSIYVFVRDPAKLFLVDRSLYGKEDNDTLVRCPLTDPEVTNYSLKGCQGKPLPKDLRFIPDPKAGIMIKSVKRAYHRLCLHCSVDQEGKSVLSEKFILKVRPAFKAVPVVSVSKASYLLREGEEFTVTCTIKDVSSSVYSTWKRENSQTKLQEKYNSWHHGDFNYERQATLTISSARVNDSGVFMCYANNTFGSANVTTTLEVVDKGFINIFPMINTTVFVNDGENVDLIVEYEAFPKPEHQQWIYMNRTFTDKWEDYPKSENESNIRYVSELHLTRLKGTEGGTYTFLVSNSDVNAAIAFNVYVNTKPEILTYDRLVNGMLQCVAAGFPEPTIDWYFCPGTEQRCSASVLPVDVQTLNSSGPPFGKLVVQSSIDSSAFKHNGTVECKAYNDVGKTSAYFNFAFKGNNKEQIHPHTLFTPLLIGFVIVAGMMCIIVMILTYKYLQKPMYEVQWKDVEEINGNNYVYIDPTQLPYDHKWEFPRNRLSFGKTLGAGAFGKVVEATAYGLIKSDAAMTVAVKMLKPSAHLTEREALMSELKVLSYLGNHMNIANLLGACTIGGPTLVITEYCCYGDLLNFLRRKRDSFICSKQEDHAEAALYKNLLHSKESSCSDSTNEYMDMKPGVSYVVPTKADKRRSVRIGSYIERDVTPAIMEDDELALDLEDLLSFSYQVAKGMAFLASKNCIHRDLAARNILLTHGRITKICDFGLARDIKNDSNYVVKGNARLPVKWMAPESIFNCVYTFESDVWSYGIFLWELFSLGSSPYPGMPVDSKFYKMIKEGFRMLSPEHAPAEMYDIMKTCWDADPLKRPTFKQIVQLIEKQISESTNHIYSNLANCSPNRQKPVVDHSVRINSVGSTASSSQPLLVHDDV
Sequence of Serine/threonine-protein kinase TAO3 (Homo sapiens) (Q9H2K8 whole entry): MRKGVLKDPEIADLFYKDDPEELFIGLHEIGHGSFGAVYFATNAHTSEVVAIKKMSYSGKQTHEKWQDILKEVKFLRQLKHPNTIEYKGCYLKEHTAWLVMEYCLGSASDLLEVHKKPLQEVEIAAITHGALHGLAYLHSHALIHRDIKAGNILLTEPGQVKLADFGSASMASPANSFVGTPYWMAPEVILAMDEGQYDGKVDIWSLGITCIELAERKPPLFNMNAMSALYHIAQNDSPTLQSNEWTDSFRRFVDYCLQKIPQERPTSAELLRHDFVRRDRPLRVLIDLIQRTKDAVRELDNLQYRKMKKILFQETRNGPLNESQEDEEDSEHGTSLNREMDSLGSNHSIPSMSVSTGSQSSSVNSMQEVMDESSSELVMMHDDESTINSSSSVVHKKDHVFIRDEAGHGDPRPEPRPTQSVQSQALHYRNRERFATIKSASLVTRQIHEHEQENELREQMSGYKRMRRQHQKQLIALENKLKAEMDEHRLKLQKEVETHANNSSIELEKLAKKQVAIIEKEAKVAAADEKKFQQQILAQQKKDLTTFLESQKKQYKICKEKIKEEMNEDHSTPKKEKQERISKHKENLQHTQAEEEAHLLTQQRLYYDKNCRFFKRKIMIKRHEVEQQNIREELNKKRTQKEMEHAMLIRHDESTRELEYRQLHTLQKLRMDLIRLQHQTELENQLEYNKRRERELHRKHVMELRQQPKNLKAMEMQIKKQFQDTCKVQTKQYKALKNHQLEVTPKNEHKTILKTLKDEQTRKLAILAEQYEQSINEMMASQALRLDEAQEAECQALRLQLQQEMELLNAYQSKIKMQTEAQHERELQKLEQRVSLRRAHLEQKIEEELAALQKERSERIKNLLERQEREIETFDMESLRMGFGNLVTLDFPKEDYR
Sequence of Serine/threonine-protein kinase PknB (Mycobacterium tuberculosis) (P9WI81 whole entry, canonical isoform): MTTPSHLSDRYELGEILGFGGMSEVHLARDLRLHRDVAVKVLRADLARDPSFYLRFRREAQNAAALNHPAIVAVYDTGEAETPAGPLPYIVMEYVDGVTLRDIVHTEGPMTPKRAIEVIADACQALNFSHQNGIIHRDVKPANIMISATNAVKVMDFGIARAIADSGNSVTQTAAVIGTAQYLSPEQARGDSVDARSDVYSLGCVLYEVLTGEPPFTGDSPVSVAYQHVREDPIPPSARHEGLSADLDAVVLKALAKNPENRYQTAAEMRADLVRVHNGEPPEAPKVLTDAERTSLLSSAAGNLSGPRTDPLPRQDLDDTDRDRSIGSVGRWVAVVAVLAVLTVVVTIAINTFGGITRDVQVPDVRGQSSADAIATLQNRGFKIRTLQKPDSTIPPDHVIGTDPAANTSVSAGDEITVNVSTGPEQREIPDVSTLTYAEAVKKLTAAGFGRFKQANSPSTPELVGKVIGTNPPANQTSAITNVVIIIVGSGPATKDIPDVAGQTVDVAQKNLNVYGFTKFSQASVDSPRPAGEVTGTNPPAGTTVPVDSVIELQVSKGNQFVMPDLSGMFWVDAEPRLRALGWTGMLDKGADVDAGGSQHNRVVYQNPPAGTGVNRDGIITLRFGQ
Sequence of Mast/stem cell growth factor receptor Kit (Homo sapiens), P10721 [V559D] (P10721 whole entry V559D): as the sequence (P10721 whole entry V559D/V654A) above, with A654V counted along it
Sequence of Serine/threonine-protein kinase haspin (Homo sapiens) (Q8TF76 whole entry): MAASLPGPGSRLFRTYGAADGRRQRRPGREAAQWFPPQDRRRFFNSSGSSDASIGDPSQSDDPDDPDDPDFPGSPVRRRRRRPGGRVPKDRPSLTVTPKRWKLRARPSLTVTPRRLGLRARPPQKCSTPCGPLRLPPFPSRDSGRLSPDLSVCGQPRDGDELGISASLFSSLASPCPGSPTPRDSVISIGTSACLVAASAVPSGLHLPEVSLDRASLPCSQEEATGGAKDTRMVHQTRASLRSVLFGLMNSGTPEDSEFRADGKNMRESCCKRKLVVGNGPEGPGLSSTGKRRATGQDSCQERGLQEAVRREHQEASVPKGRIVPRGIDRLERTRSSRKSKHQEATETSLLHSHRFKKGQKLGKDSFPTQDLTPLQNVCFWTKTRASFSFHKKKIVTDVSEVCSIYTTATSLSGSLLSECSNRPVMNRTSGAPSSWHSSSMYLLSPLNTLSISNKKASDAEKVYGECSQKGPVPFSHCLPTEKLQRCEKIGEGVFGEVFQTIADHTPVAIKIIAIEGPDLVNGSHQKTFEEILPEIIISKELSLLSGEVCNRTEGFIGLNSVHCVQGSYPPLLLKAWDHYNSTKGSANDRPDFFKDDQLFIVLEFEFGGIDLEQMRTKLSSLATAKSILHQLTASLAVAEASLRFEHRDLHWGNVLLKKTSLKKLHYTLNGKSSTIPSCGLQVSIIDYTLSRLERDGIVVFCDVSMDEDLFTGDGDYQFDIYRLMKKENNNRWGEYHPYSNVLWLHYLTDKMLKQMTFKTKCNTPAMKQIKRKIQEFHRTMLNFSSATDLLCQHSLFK
Sequence of Cyclin-dependent kinase 3 (Homo sapiens) (Q00526 whole entry, looked up): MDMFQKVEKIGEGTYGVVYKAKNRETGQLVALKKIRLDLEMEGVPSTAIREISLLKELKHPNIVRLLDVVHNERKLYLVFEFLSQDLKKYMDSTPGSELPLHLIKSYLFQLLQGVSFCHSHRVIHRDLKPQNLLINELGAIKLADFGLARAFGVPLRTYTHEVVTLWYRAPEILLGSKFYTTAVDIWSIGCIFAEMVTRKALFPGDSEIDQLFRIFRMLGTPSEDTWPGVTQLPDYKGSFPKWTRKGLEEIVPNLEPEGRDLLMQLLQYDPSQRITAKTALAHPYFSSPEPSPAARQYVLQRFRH

CN(C)CC#Cc1ccc(OCCCc2sc(N3CCc4cccc(C(=O)Nc5nc6ccccc6s5)c4C3)nc2C(=O)O)c(F)c1 [A-1155463]
residual activity [1]: 100% | residual activity [2]: 91% | Ki [3]: 794 nM | pKi [3]: 6.1 | residual activity [4]: 100% | residual activity [5]: 100% | residual activity [6]: 96% | residual activity [7]: 95% | residual activity [8]: 100% | residual activity [9]: 93% | residual activity [10]: 100% | residual activity [11]: 99% | residual activity [12]: 100% | residual activity [13]: 100% | residual activity [14]: 100% | residual activity [15]: 92% | residual activity [16]: 100% | residual activity [17]: 100% | residual activity [18]: 100% | residual activity [19]: 100% | residual activity [20]: 100% | residual activity [21]: 96% | residual activity [22]: 78% | residual activity [23]: 86% | residual activity [24]: 100% | residual activity [25]: 95% | residual activity [26]: 100% | residual activity [27]: 100% | residual activity [28]: 58% | residual activity [29]: 100% | residual activity [30]: 100% | residual activity [31]: 86% | residual activity [32]: 97% | residual activity [33]: 91% | EC50 (NCI-H146): 70 nM (active) | residual activity [34]: 100% | residual activity [35]: 100% | residual activity [36]: 100% | residual activity [37]: 97% | residual activity [38]: 100% | inhibition [39]: 2.01% | residual activity [40]: 77% | residual activity [41]: 95% | residual activity [42]: 68% | residual activity [43]: 96% | residual activity [44]: 100%
